Results taken from US6784137B2, “6-aryl-4-aminopicolinates and their use as herbicides” (Dow AgroSciences LLC, priority 2001, dated 2004).

Tests used:
[1] = system: Cocklebur (Xanthium strumarium); assay: Postemergence herbicidal activity, greenhouse spray; format: in vivo; details: Table 1, visual score after 2 weeks; for pest or weed control at 500 ppm: rate 500 ppm, 0 no injury, 100 complete kill
Description: (§1) When required to ensure good germination and healthy plants, a fungicide treatment and/or other chemical or physical treatment was applied. The plants were grown for 7-21 days in a greenhouse with an approximate 15 hr photoperiod which was maintained at about 23-29° C. during the day and 22-28° C. during the night. Nutrients and water were added on a regular basis and supplemental lighting was provided with overhead metal halide 1000-Watt lamps as necessary. The plants were employed for testing when they reached the first or second true leaf stage. A weighed amount, determined by the highest rate to be tested, of each test compound was placed in a 20 mL glass vial and was dissolved in 4 mL of a 97:3 v/v (volume/volume) mixture of acetone and dimethyl sulfoxide (DMSO) to obtain concentrated stock solutions. […] The concentrated stock solutions obtained were diluted with an aqueous mixture containing acetone, water, isopropyl alcohol, DMSO, At plus 411 F crop oil concentrate, and Triton X-155 surfactant in a 48.5:39:10:1.5:1.0:0.02 v/v ratio to obtain spray solutions of known concentration. The solutions containing the highest concentration to be tested were prepared by diluting 2 mL aliquots of the stock solution with 13 mL of the mixture and lower concentrations were prepared by serial dilution of the stock solution. Approximately 1.5 mL aliquots of each solution of known concentration were sprayed evenly onto each of the test plant pots using a DeVilbiss atomizer driven by compressed air pressure of 2 to 4 psi (140 to 280 kiloPascals) to obtain thorough coverage of each plant. Control plants were sprayed in the same manner with the aqueous mixture. […] The treated plants and control plants were placed in a greenhouse as described above and watered by sub-irrigation to prevent wash-off of the test compounds.

[2] = system: Lambsquarter (Chenopodium album); assay: as above; format: in vivo; details: Table 1, visual score after 2 weeks; for pest or weed control at 500 ppm: rate 500 ppm
Description: as §1

[3] = system: Barnyardgrass (Echinochloa crus-galli); assay: as above; format: in vivo; details: Table 1, visual score after 2 weeks; for pest or weed control at 500 ppm: rate 500 ppm
Description: as §1

[4] = system: Yellow nutsedge (Cyperus esculentus); assay: as above; format: in vivo; details: Table 1, visual score after 2 weeks; for pest or weed control at 500 ppm: rate 500 ppm
Description: as §1

[5] = system: Giant Foxtail (Setaria faberi); assay: Preemergence herbicidal activity, soil spray; format: in vivo; details: Table 5, visual score after 3 weeks
Description: (§2) Seeds of the desired test plant species were planted in a soil matrix prepared by mixing a loam soil (43 percent silt, 19 percent clay, and 38 percent sand, with a pH of about 8.1 and an organic matter content of about 1.5 percent) and sand in a 70 to 30 ratio. The soil matrix was contained in plastic pots with a surface area of 113 square centimeters. When required to ensure good germination and healthy plants, a fungicide treatment and/or other chemical or physical treatment was applied. A weighed amount, determined by the highest rate to be tested, of each test compound was placed in a 20 mL glass vial and was dissolved in 4 mL of a 97:3 v/v (volume/volume) mixture of acetone and dimethyl sulfoxide to obtain concentrated stock solutions. […] The stock solutions obtained were diluted with a 99.9:0.1 mixture of water and Tween® 155 surfactant to obtain application solutions of known concentration. The solutions containing the highest concentration to be tested were prepared by diluting 2 mL aliquots of the stock solution with 15 mL of the mixture and lower concentrations were prepared by serial dilution of the stock solution. A 2.5 mL aliquot of each solution of known concentration was sprayed evenly onto the soil surface (113 sq. cm) of each seeded pot using a Cornwall 5.0 mL glass syringe fitted with a TeeJet TN-3 hollow cone nozzle to obtain thorough coverage of the soil in each pot. Control pots were sprayed in the same manner with the aqueous mixture. The treated pots and control pots were placed in a greenhouse maintained with an approximate 15 hr photoperiod and temperatures of about 23-29° C. during the day and 22-28° C. during the night. Nutrients and water were added on a regular basis and supplemental lighting was provided with overhead metal halide 1000-Watt lamps as necessary. The water was added by top-irrigation.

[6] = system: Lambsquarter (Chenopodium album); assay: Preemergence herbicidal activity, soil spray; format: in vivo; details: Table 5, visual score after 3 weeks
Description: as §2

[7] = system: Crabgrass(large) (Digitaria sanguinalis); assay: Preemergence herbicidal activity, soil spray; format: in vivo; details: Table 5, visual score after 3 weeks
Description: as §2

[8] = system: Pigweed (redroot) (Amaranthus retroflexus); assay: Preemergence herbicidal activity, soil spray; format: in vivo; details: Table 5, visual score after 3 weeks
Description: as §2

[9] = Xanthium strumarium, post-emergence, 336 h, read-out: Post-emergent % control XANST
[10] = Chenopodium album, post-emergence, 336 h, read-out: Post-emergent % control CHEAL
[11] = Echinochloa crus-galli, post-emergence, 336 h, read-out: Post-emergent % control ECHCG
[12] = Cyperus, post-emergence, 336 h, read-out: Post-emergent % control CYPES
[13] = Setaria faberi, pre-emergence, 504 h, rate 140 ppm, read-out: Pre-emergent % control SETFA
[14] = Chenopodium album, pre-emergence, 504 h, rate 140 ppm, read-out: Pre-emergent % control CHEAL
[15] = Digitaria sanguinalis, pre-emergence, 504 h, rate 140 ppm, read-out: Pre-emergent % control DIGSA
[16] = Amaranthus retroflexus, pre-emergence, 504 h, rate 140 ppm, read-out: Pre-emergent % control AMARE
[17] = Setaria faberi, pre-emergence, 504 h, rate 560 ppm, read-out: Pre-emergent % control SETFA
[18] = Chenopodium album, pre-emergence, 504 h, rate 560 ppm, 100 complete kill or no germination, read-out: Pre-emergent % control CHEAL
[19] = Digitaria sanguinalis, pre-emergence, 504 h, rate 560 ppm, read-out: Pre-emergent % control DIGSA
[20] = Amaranthus retroflexus, pre-emergence, 504 h, rate 560 ppm, read-out: Pre-emergent % control AMARE
[21] = rate 560 ppm, 100 complete kill or no germination

Nc1c(F)c(-c2ccc(C(F)(F)F)cc2)nc(C(=O)O)c1Cl [Compound 172, 4-Amino-3-chloro-5-fluoro-6-(4-trifluorophenyl)pyridine-2-carboxylic acid]
Post-emergent % control XANST ([1]; rate 125 ppm): 100%
Post-emergent % control CHEAL ([2]; rate 125 ppm): 90%
Post-emergent % control ECHCG ([3]; rate 125 ppm): 90%
Post-emergent % control CYPES ([4]; rate 125 ppm): 90%
Pre-emergent % control SETFA ([5]; rate 140 ppm): 90%
Pre-emergent % control CHEAL ([6]; rate 140 ppm): 90%
Pre-emergent % control DIGSA ([7]; rate 140 ppm): 95%
Pre-emergent % control AMARE ([8]; rate 140 ppm): 95%

Nc1cc(-c2ccc(Cl)cc2F)nc(C(=O)O)c1Cl [Compound 168, 4-Amino-3-chloro-6-(4-chloro-2-fluorophenyl)pyridine-2-carboxylic acid]
pest or weed control at 500 ppm [1, 9]: 100%
pest or weed control at 500 ppm [2, 10]: 100%
pest or weed control at 500 ppm [3, 11]: 85%
pest or weed control at 500 ppm [4, 12]: 90%
pest or weed control at 140 ppm [5, 13]: 100%
pest or weed control at 140 ppm [6, 14]: 100%
pest or weed control at 140 ppm [7, 15]: 100%
pest or weed control at 140 ppm [8, 16]: 100%
melting point: 162 to 163 °C

Cc1ccc(-c2cc(N)c(Cl)c(C(=O)O)n2)c(F)c1 [Compound 158, 4-Amino-3-chloro-6-(2-fluoro-4-methylphenyl)pyridine-2-carboxylic acid]
pest or weed control at 500 ppm [1, 9]: 100%
pest or weed control at 500 ppm [2, 10]: 100%
pest or weed control at 500 ppm [3, 11]: 95%
pest or weed control at 500 ppm [4, 12]: 70%
pest or weed control at 140 ppm [5, 13]: 100%
pest or weed control at 140 ppm [6, 14]: 100%
pest or weed control at 140 ppm [7, 15]: 98%
pest or weed control at 140 ppm [8, 16]: 100%
melting point: 187 to 189 °C

COC(=O)c1nc(-c2ccc(C)cc2)c(F)c(N)c1F [Compound 91, Methyl 4-amino-3,5-difluoro-6-(4-methylphenyl)pyridine-2-carboxylate]
pest or weed control at 500 ppm [1, 9]: 100%
pest or weed control at 500 ppm [2, 10]: 100%
pest or weed control at 500 ppm [3, 11]: 90%
pest or weed control at 500 ppm [4, 12]: 80%
pest or weed control at 560 ppm [5, 17]: 60%
pest or weed control at 560 ppm [6, 18]: 90%
pest or weed control at 560 ppm [7, 19]: 100%
pest or weed control at 560 ppm [8, 20]: 100%
melting point: 145 to 146 °C

Nc1cc(-c2ccc(C(F)(F)F)cc2Cl)nc(C(=O)O)c1Cl [Compound 184, 4-Amino-3-chloro-6-(2-chloro-4-(trifluoromethyl)phenyl)pyridine-2-carboxylic acid]
pest or weed control at 125 ppm ([1]; Xanthium strumarium, post-emergence, 336 h, rate 125 ppm, read-out: Post-emergent % control XANST): 100%
pest or weed control at 125 ppm ([2]; Chenopodium album, post-emergence, 336 h, rate 125 ppm, read-out: Post-emergent % control CHEAL): 70%
pest or weed control at 125 ppm ([3]; Echinochloa crus-galli, post-emergence, 336 h, rate 125 ppm, read-out: Post-emergent % control ECHCG): 70%
pest or weed control at 125 ppm ([4]; Cyperus, post-emergence, 336 h, rate 125 ppm, read-out: Post-emergent % control CYPES): 40%
pest or weed control at 140 ppm [5, 13]: 70%
pest or weed control at 140 ppm [6, 14]: 90%
pest or weed control at 140 ppm [7, 15]: 90%
pest or weed control at 140 ppm [8, 16]: 85%

Nc1c(F)c(-c2ccc(Cl)cc2)nc(C(=O)O)c1Cl [Compound 173, 4-Amino-3-chloro-5-fluoro-6-(4-chlorophenyl)pyridine-2-carboxylic acid]
pest or weed control at 500 ppm [1, 9]: 100%
pest or weed control at 500 ppm [2, 10]: 100%
pest or weed control at 500 ppm [3, 11]: 100%
pest or weed control at 500 ppm [4, 12]: 100%
pest or weed control at 560 ppm [5, 17]: 100%
pest or weed control at 560 ppm [6, 18]: 100%
pest or weed control at 560 ppm [7, 19]: 100%
pest or weed control at 560 ppm [8, 20]: 100%

COC(=O)c1nc(-c2ccc(Cl)cc2F)cc(N)c1Cl [Compound 59, Methyl 4-amino-3-chloro-6-(4-chloro-2-fluorophenyl)pyridine-2-carboxylate]
pest or weed control at 500 ppm [1, 9]: 100%
pest or weed control at 500 ppm [2, 10]: 100%
pest or weed control at 500 ppm [3, 11]: 80%
pest or weed control at 280 ppm ([5]; Setaria faberi, pre-emergence, 504 h, rate 280 ppm, read-out: Pre-emergent % control SETFA): 100%
pest or weed control at 280 ppm ([6]; Chenopodium album, pre-emergence, 504 h, rate 280 ppm, read-out: Pre-emergent % control CHEAL): 100%
pest or weed control at 280 ppm ([7]; Digitaria sanguinalis, pre-emergence, 504 h, rate 280 ppm, read-out: Pre-emergent % control DIGSA): 100%
pest or weed control at 280 ppm ([8]; Amaranthus retroflexus, pre-emergence, 504 h, rate 280 ppm, read-out: Pre-emergent % control AMARE): 100%
melting point: 107 to 109 °C

COC(=O)c1nc(-c2ccc(C)cc2)cc(-n2cccc2)c1Cl [Compound 89, Methyl 4-N-pyrolyl-3-chloro-6-(4-methylphenyl)pyridine-2-carboxylate]
Post-emergent % control XANST ([1]; rate 250 ppm): 100%
Post-emergent % control CHEAL ([2]; rate 250 ppm): 100%
Post-emergent % control ECHCG ([3]; rate 250 ppm): 90%
Post-emergent % control CYPES ([4]; rate 250 ppm): 50%
Pre-emergent % control SETFA ([5]; rate 560 ppm): 85%
Pre-emergent % control CHEAL [6, 21]: 100%
Pre-emergent % control DIGSA ([7]; rate 560 ppm): 90%
Pre-emergent % control AMARE ([8]; rate 560 ppm): 100%

Cc1ccc(-c2cc(-n3cccc3)c(Cl)c(C(=O)O)n2)cc1 [Compound 180, 3-chloro-6-(4-methylphenyl)-4-(N-pyrolyl)pyridine-2-carboxylic acid]
Post-emergent % control XANST ([1]; rate 250 ppm): 80%
Post-emergent % control CHEAL ([2]; rate 250 ppm): 100%
Post-emergent % control ECHCG ([3]; rate 250 ppm): 70%
Post-emergent % control CYPES ([4]; rate 250 ppm): 30%
Pre-emergent % control SETFA ([5]; rate 560 ppm): 100%
Pre-emergent % control CHEAL [6, 21]: 100%
Pre-emergent % control DIGSA ([7]; rate 560 ppm): 95%
Pre-emergent % control AMARE ([8]; rate 560 ppm): 100%
